Reference: patent publication US20260152487A1 (Sitryx Therapeutics Limited, priority 2021, published 2026)

Biological target: T1, recombinant human PKM2 (Homo sapiens, UniProt P14618)
T1 construct: His (N); purchased R&D Systems
Assay: Human PKM2 activation assay (Kinase-Glo Plus luminescent detection of generated ATP)
Assay type: biochemical
Settings: for hPKM2 Emax / Emax: percentage activation normalised to DMSO vehicle (LOW) and 5 μM TEPP-46 (HIGH); for EC50: recombinant human PKM2 activation, 4-parameter logistic fit, read-out: hPKM2 EC50; for Emax: read-out: hPKM2 Emax
Description: Compound activation of recombinant human PKM2 pyruvate kinase activity was determined by biochemical assay. N-terminal His-tagged hPKM2 was sourced from R&D Systems and its substrates phosphoenolpyruvate (PEP) and ADP from Sigma-Aldrich and 2Bscientific Ltd, respectively. The Kinase-Glo® Plus luminescence assay was from Promega. All other reagents were from Sigma-Aldrich. Test Compounds were prepared as 10 mM DMSO stocks and dilution series prepared in DMSO for direct dilution into Assay Buffer comprising 50 mM imidazole, 50 mM KCl, 7 mM MgCl2, 0.01% Tween20, 0.05% BSA (pH 7.2).
Human PKM2 was diluted into Assay Buffer comprising 50 mM imidazole, 50 mM KCl, 7 mM MgCl2, 0.01% Tween20, 0.05% BSA (pH 7.2) to a final concentration of […]. Enzyme-Assay Buffer mix was dispensed into a 384-well shallow-well white-walled plate (PerkinElmer) and Test Compounds added by acoustic dispense (Echo®, Labcyte Inc.).
After 60 minutes' incubation on an orbital shaker (300 rpm, 26° C.), enzyme activity was quantified by the luminescent detection of generated ATP. Kinase-Glo® Plus reagent was added to each well and the plates incubated for a further 15 minutes on an orbital shaker in the dark (300 rpm, 26° C.) before luminescence measurement on a plate reader (PHERAstar® FSX, BMG Labtech).
Percentage activation was calculated by normalising […] signals to plate LOW (DMSO vehicle) and HIGH (5 μM TEPP-46) controls. EC50 and Emax values were determined from 4-parameter logistic fits of compound concentration-response curves.

T1 sequence (P14618 2-531 limits assumed): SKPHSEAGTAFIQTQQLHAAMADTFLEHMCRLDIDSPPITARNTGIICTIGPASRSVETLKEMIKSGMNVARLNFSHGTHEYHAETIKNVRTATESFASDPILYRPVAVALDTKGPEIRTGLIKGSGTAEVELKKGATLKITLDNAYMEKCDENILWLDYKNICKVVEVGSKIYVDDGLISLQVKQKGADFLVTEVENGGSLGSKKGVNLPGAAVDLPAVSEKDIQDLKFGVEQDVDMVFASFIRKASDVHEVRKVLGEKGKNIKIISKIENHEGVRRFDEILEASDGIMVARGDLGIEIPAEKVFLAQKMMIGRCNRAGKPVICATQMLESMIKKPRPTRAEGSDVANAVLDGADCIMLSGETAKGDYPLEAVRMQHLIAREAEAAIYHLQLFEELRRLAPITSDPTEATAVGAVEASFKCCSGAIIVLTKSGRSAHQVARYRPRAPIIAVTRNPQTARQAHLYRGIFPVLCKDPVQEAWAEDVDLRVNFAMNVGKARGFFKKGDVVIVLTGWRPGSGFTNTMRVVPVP

Row | EC50 [nM] | Emax [%] | Compound | hPKM2 Emax [%]
1 | 43.3 | 68.3 | COc1ccc(Cn2ncc3cc(S(=N)(=O)c4ccc5c(c4)CCO5)ccc3c2=O)cn1 (racemic) [Example 127, 6-(2,3-dihydrobenzofuran-5-sulfonimidoyl)-2-((6-methoxypyridin-3-yl)methyl)phthalazin-1(2H)-one] | –
2 | 88.1 | 102 | COc1ccc(Cn2ncc3cc(S(=N)(=O)c4ccc(OC(F)F)cc4)ccc3c2=O)cn1 (racemic) [Example 134, 6-(4-(difluoromethoxy)phenylsulfonimidoyl)-2-((6-methoxypyridin-3-yl)methyl)phthalazin-1(2H)-one] | –
3 | 129 | 81.9 | COc1ccc(S(=N)(=O)c2ccc3c(=O)n(Cc4ccc(OC)nc4)ncc3c2)cc1 (racemic) [Example 137, 6-(4-methoxyphenylsulfonimidoyl)-2-((6-methoxypyridin-3-yl)methyl)phthalazin-1(2H)-one] | –
4 | 289 | 95.1 | COc1ccc(Cn2ncc3cc([S@](=N)(=O)c4ccccc4)ccc3c2=O)cn1 (single isomer, unassigned) [Example 132] | –
5 | 444 | 77.3 | COc1ccc(Cn2ncc3cc([S@@](=N)(=O)c4ccccc4)ccc3c2=O)cn1 (single isomer, unassigned) [Example 133] | –
6 | 111 | 79.9 | COc1ccc(Cn2ncc3cc([S@](=N)(=O)c4ccc(OC(F)F)cc4)ccc3c2=O)cn1 (single isomer, unassigned) [Example 135] | –
7 | 46.5 | 97.2 | COc1ccc(Cn2ncc3cc([S@@](=N)(=O)c4ccc(OC(F)F)cc4)ccc3c2=O)cn1 (single isomer, unassigned) [Example 136] | –
8 | 129 | – | COc1ccc([S@](=N)(=O)c2ccc3c(=O)n(Cc4ccc(OC)nc4)ncc3c2)cc1 (single isomer, unassigned) [Example 139] | 81.9
9 | 434 | 78.6 | C[C@H](O)c1cccc(Cn2ncc3cc(S(=O)(=O)c4cnn(C)c4)ccc3c2=O)n1 (single isomer, unassigned) [Example 278] | –
10 | 277 | 88.7 | C[C@@H](O)c1cccc(Cn2ncc3cc(S(=O)(=O)c4cnn(C)c4)ccc3c2=O)n1 (single isomer, unassigned) [Example 279] | –
11 | 111 | 92.2 | Cc1cccc(Cn2ncc3cc(S(=O)(=O)c4csc([C@@H](C)O)n4)ccc3c2=O)n1 (single isomer, unassigned) [Example 296] | –
12 | 103 | 94.7 | Cc1cccc(Cn2ncc3cc(S(=O)(=O)c4csc([C@H](C)O)n4)ccc3c2=O)n1 (single isomer, unassigned) [Example 297] | –
13 | 128 | 105 | N=[S@](=O)(c1cn[nH]c1)c1ccc2c(=O)n(Cc3ccc4c(n3)CCO4)ncc2c1 (stereo in doubt) [Example 363] | –
14 | 35 | 114 | N=[S@@](=O)(c1cn[nH]c1)c1ccc2c(=O)n(Cc3ccc4c(n3)CCO4)ncc2c1 (stereo in doubt) [Example 364] | –
15 | 566 | 92.6 | COc1ccc(S(=O)(=O)c2ccc3c(=O)n(Cc4ccnc(O)c4)ncc3c2)cc1 [Example 3, 2-((2-hydroxypyridin-4-yl)methyl)-6-((4-methoxyphenyl)sulfonyl)phthalazin-1(2H)-one] | –
16 | 147 | 95.5 | COc1ccc(Cn2ncc3cc(S(=O)(=O)c4ccccc4)ccc3c2=O)c(C(N)=O)n1 [Example 14, 6-methoxy-3-((1-oxo-6-(phenylsulfonyl)phthalazin-2(1H)-yl)methyl)picolinamide] | –
17 | 841 | 98.5 | N#Cc1c[nH]nc1Cn1ncc2cc(S(=O)(=O)c3ccccc3)ccc2c1=O [Example 18, 3-((1-oxo-6-(phenylsulfonyl)phthalazin-2(1H)-yl)methyl)-1H-pyrazole-4-carbonitrile] | –

Row | EC50 [nM] | Emax [%] | Compound | hPKM2 Emax [%]
18 | 102 | 86.1 | O=c1c2ccc(S(=O)(=O)c3ccccc3)cc2cnn1Cc1ccsc1CO [Example 22, 2-((2-(hydroxymethyl)thiophen-3-yl)methyl)-6-(phenylsulfonyl)phthalazin-1(2H)-one] | –
19 | 265 | 112 | N#Cc1sccc1Cn1ncc2cc(S(=O)(=O)c3ccccc3)ccc2c1=O [Example 23, 3-((1-oxo-6-(phenylsulfonyl)phthalazin-2(1H)-yl)methyl)thiophene-2-carbonitrile] | –
20 | 198 | 126 | O=c1c2ccc(S(=O)(=O)c3ccccc3)cc2cnn1Cc1cc(C2CC2)[nH]n1 [Example 25, 2-((5-cyclopropyl-1H-pyrazol-3-yl)methyl)-6-(phenylsulfonyl)phthalazin-1(2H)-one] | –
21 | 838 | 106 | O=c1c2ccc(S(=O)(=O)c3ccccc3)cc2cnn1Cc1n[nH]cc1CO [Example 26, 2-((4-(hydroxymethyl)-1H-pyrazol-3-yl)methyl)-6-(phenylsulfonyl)phthalazin-1(2H)-one] | –
22 | 70 | 122 | O=c1c2ccc(S(=O)(=O)c3ccccc3)cc2cnn1Cc1cc2n(n1)CCO2 [Example 27, 2-((2,3-dihydropyrazolo[5,1-b]oxazol-6-yl)methyl)-6-(phenylsulfonyl)phthalazin-1(2H)-one] | –
23 | 162 | 103 | O=c1c2ccc(S(=O)(=O)c3ccccc3)cc2cnn1Cc1ccn(C(F)F)n1 [Example 28, 2-((1-(difluoromethyl)-1H-pyrazol-3-yl)methyl)-6-(phenylsulfonyl)phthalazin-1(2H)-one] | –
24 | 122 | 98.2 | COc1ccc(Cn2ncc3cc(S(=O)(=O)c4ccccc4)ccc3c2=O)cc1 [Example 49, 2-(4-methoxybenzyl)-6-(phenylsulfonyl)phthalazin-1(2H)-one] | –
25 | 1170 | 75.5 | CC(c1cccnc1)n1ncc2cc(S(=O)(=O)c3ccccc3)ccc2c1=O (stereo not drawn) [Example 69, 6-(phenylsulfonyl)-2-(1-(pyridin-3-yl)ethyl)phthalazin-1(2H)-one] | –
26 | 799 | 93.2 | Cc1cc(Cn2ncc3cc(S(=O)(=O)c4ccccc4)ccc3c2=O)no1 [Example 80, 2-((5-methylisoxazol-3-yl)methyl)-6-(phenylsulfonyl)phthalazin-1(2H)-one] | –
27 | 466 | 78.1 | CCn1nccc1Cn1ncc2cc(S(=O)(=O)c3ccccc3)ccc2c1=O [Example 83, 2-((1-ethyl-1H-pyrazol-5-yl)methyl)-6-(phenylsulfonyl)phthalazin-1(2H)-one] | –
28 | 115 | 93.1 | NC(=O)c1cccc(Cn2ncc3cc(S(=O)(=O)c4ccccc4)ccc3c2=O)c1 [Example 84, 3-((1-oxo-6-(phenylsulfonyl)phthalazin-2(1H)-yl)methyl)benzamide] | –
29 | 71.5 | 113 | NC(=O)c1occc1Cn1ncc2cc(S(=O)(=O)c3ccccc3)ccc2c1=O [Example 85, 3-((1-oxo-6-(phenylsulfonyl)phthalazin-2(1H)-yl)methyl)furan-2-carboxamide] | –
30 | 765 | 92.2 | NC(=O)c1ccc(Cn2ncc3cc(S(=O)(=O)c4ccccc4)ccc3c2=O)o1 [Example 86, 5-((1-oxo-6-(phenylsulfonyl)phthalazin-2(1H)-yl)methyl)furan −2-carboxamide] | –
31 | 475 | 85.8 | COc1cnc(Cn2ncc3cc(S(=O)(=O)c4ccccc4)ccc3c2=O)cn1 [Example 87, 2-((5-methoxypyrazin-2-yl)methyl)-6-(phenylsulfonyl)phthalazin-1(2H)-one] | –
32 | 618 | 93.2 | COc1ncccc1Cn1ncc2cc(S(=O)(=O)c3ccccc3)ccc2c1=O [Example 88, 2-((2-methoxypyridin-3-yl)methyl)-6-(phenylsulfonyl)phthalazin-1(2H)-one] | –
33 | 554 | 89.9 | NC(=O)c1c(Cl)cccc1Cn1ncc2cc(S(=O)(=O)c3ccccc3)ccc2c1=O [Example 91, 2-chloro-6-((1-oxo-6-(phenylsulfonyl)phthalazin-2(1H)-yl)methyl)benzamide] | –

Row | Compound | EC50 [nM] | Emax [%] | hPKM2 Emax [%]
34 | 2-(3-aminobenzyl)-6-((2-mathylthiazol-4-yl)sulfonyl)phthalazin-1(2H)-one [Example 151] | 36.5 | – | 92.52
35 | COc1ccc(Cn2ncc3cc(S(=N)(=O)c4ccccc4)ccc3c2=O)cn1 (racemic) [Example 131, 2-((6-methoxypyridin-3-yl)methyl)-6-(phenylsulfonimidoyl)phthalazin-1(2H)-one] | 300 | 99.7 | –
36 | Cc1cn(CCO)nc1Cn1ncc2cc(S(=O)(=O)c3ccccc3)ccc2c1=O [Example 16, 2-((1-(2-hydroxyethyl)-4-methyl-1H-pyrazol-3-yl)methyl)-6-(phenylsulfonyl)phthalazin-1(2H)-one] | 154 | 92.6 | –
